According to patent publication US20230340498A1, “COMPOSITIONS AND METHODS FOR INDUCIBLE ALTERNATIVE SPLICING REGULATION OF GENE EXPRESSION” (The Children's Hospital of Philadelphia, priority 2020, published 2023):

Tested on: SF3B3-on switch
Experiment: Candidate minigene (SF3B3, BENC1, C12orf4, PDXDC2) switch-on luciferase assay in HEK293 cells
Type: cell-based, Human
Experimental: Cell culture, transfection, and LMI070/RG7800 treatment. Human embryonic kidney (HEK293) cells (obtained from CHOP Research Vector Core stock) were maintained in DMEM media containing 10% Fetal Bovine Serum (FBS), 1% L-Glutamine and 1% penicillin/streptomycin at 37° C. with 5% CO2. Cells were cultured in 24 well plates and transfected at 80-90% confluence using Lipofectamine 2000 transfection reagent, according to the manufacturer’s protocol. For all experiments, 4 hours after plasmid transfection, cells were treated with LMI070 (MedChemExpress, HY-19620, suspended in DMSO) or RG7800 (MedChemExpress, HY-101792A, suspended in H2O) at the indicated concentrations. Cells were tested for mycoplasma by Research Vector Core. None of the cells used in the study were listed in ICLAC database of commonly misidentified cell lines.
In vitro luciferase assays. HEK293 cells were cultured in DMEM (10% FBS (v/v), 1% Pen/ Strep (v/v), and 1% L-glutamine (v/v) in a 24-well plate. At 70%-80% confluence, cells were co-transfected with the Xon.Firefly luciferase cassettes (0.3 µg/well) and a SV40p-Renilla luciferase cassette as transfection control (0.02 µg/well). Four hours after transfections cells were treated either with LMI070 or RG7800 at indicated concentrations. At 24 h after transfection, cells were rinsed with ice-cold PBS and Renilla and Firefly luciferase activities were assessed using the Dual-Luciferase Reporter Assay System (Promega) according to the manufacturer’s instructions. Luminescent readouts were obtained with a Monolight 3010 luminometer (Pharmigen). Relative light units (RLUs) were calculated as the quotient of […] RLUs and results expressed relative to mock treated control cells.
Next, a series of switch-on cassettes were developed from the top 4 LMI070-responsive exons found in the RNA-Seq dataset. […] HEK293 cells were transfected with the candidate cassettes, treated with LMI070, and luciferase activity or eGFP expression determined 24 h later. […]

CC1(C)CC(Oc2ccc(-c3ccc(-c4cn[nH]c4)cc3O)nn2)CC(C)(C)N1 [LMI070, 5-(1H-Pyrazol-4-yl)-2-(6-((2,2,6,6-tetramethylpiperidin-4-yl)oxy)pyridazin-3-yl)phenol]
luciferase expression of each candidate cassette in response to LMI070 (SF3B3, BENC1, C12orf4, PDXDC2 cassettes, 24 h): Increased luciferase expression | luciferase induction of the SF3B3-on switch (in response to LMI070, relative to DMSO, 24 h): more than 100 fold | fold-change in luciferase activity in response to LMI070, original intron (original SF3B3-on construct compared with alternate intron cassettes): > 200 fold
